According to US9593068B2, “Derivatives of tartaric acid” (RATIOPHARM GMBH, priority 2013, dated 2017):

Experiment: Kinetics of MMF-release during incubation in intestinal fluid of the minipig (LC-MS quantification of MMF)
Assay type: in vitro ADME, Göttingen SPF minipig
Conditions: diluted small intestinal fluid (1/20 v/v with 50 mM KH2PO4, pH 6.8), 37° C., samples at 0-120 min; reference DMF; FIG. 1 / FIG. 2
Description: Investigation and Comparision of the Kinetics of MMF-Release of the Different Compounds of the Present Invention and DMF During Incubation in Intestinal Fluid of the Minipig
Intestinal fluid samples were prepared at CiToxLAB Scantox A/S. The samples were taken from 1 female Göttingen SPF minipig from CiToxLAB Scantox A/S standard stock, originally obtained from Ellegaard Göttingen Minipigs A/S, DK-4261 Dalmose, Denmark. The minipig was 10 months old and the body weight was 21 kg. The minipig was identified by an individual number tagged to the pinna of one ear (animal number is documented in the raw data).
The minipig was fasted for approximately 28 hours before sampling of intestinal fluid. On the day of sampling, the minipig was weighed and anaesthetised by an intramuscular injection in the neck or in the left hind leg (about 0.3 ml per kg body weight) of a mixture of Zoletil 50 Vet., Virbac, France (125 mg tiletamine and 125 mg zolazepam), Rompun Vet., Bayer, Germany (20 mg xylazine/ml, 6.5 ml), Ketaminol Vet., Veterinaria AG, Switzerland (100 mg ketamine/ml, 1.5 ml) and Methadon DAK, Nycomed Danmark, Denmark (10 mg methadon/ml, 2.5 ml).
Intestinal fluid was obtained by flushing one jejunal segment, measuring 30.2 cm, with saline. Intestinal fluid together with saline used for flushing was placed in centrifuge tubes. All samples were frozen at −70° C. and shipped on dry ice to the Sponsor for further use.
2.1.1. Analytical Instrument • Instrument: Acquity UPLC system coupled with a TQ detector (triple quadruple mass spectrometer)
Calibration solutions were prepared by serial dilution of SSMMF; diluted small intestinal fluid (diluted by 1/20 v/v with 50 mM KH2PO4, pH 6.8; (dil IF) was used as matrix. The dilution scheme is given below:
50 μl sample (calibration solution or sample of an incubation experiment with MMF prodrugs) was mixed with 50 μl WSISTD, 20 μl formic acid and 100 μl acetonitrile. This mixture was vortexed for 15 sec and centrifuged (13,000 rpm, 3 min). Thereafter, 4 μl of the supernatant were subjected to LC-MS analysis.
2.2. Incubation Experiments with DMF (Reference) and Compounds of the Invention
Stock solutions were prepared in DMSO. Concentrations in stock solutions were 5.00, 2.50 and 1.67 mmol for compounds with one, two and three molar MMF equivalents.
In a HPLC glass vial, 8 μl of stock solution were mixed with 792 μl dil IF and the mixture was stirred (250 rpm) in a water bath (T=37° C.).
Immediately after mixing as well as at t=15 min, 30 min, 60 min, 90 min and 120 min, 50 μl were withdrawn and prepared for LC-MS analysis as described in chapter. 2.1.3.
Incubations were continued and in case the result of analysis of the 120 min indicated the presence of remaining intact MMF prodrug, additional samples were taken (t=360 or 420 min and at 1,260 or 1,320 min) and analysed.
The concentration/peak area ratio data pairs were subjected to regression analysis with 1/x weighting and the resulting calibration equation was used to quantify the MMF content in incubation samples.

| Compound | hydrolyzation (to MMF) compared to DMF | release kinetics (MMF release) compared to DMF |
| --- | --- | --- |
| CCOC(=O)[C@H](OC(=O)/C=C/C(=O)OC)[C@@H](OC(=O)/C=C/C(=O)OC)C(=O)OCC [Example 1, (E)-But-2-enedioic acid (1R,2R)-1,2-bis-ethoxy-carbonyl-2-((E)-3-methoxycarbonyl-acryloyloxy)-ethyl ester methyl ester] | modified hydrolyzation compared to DMF | significantly slower than the one of DMF |
| COC(=O)/C=C/C(=O)O[C@@H](C(=O)OC(C)C)[C@@H](OC(=O)/C=C/C(=O)OC)C(=O)OC(C)C [Example 2, (E)-But-2-enedioic acid (1R,2R)-1,2-bis-isopropoxycarbonyl-2-((E)-3-methoxycarbonyl-acryloyloxy)-ethyl ester methyl ester] | modified hydrolyzation compared to DMF | significantly slower than the one of DMF |
| COC(=O)/C=C/C(=O)OCCN(CCO)CCOC(=O)/C=C/C(=O)OC [Example 3, (2-Hydroxy-ethyl)-bis-[2-((E)-3-methoxycarbonyl-acryloyloxy)-ethyl]-amine] | modified hydrolyzation compared to DMF | significantly slower than the one of DMF |
